Patent publication US12466839B2, “Allosteric AKT inhibitors for use in the treatment of Hereditary Hemorrhagic Telangiectasia” (VADERIS THERAPEUTICS AG, priority 2020, dated 2025)

Tests used:
[1] = molecular target: Kir2.1 (Homo sapiens, UniProt P63252); assay: Cardiac ion channel profile; assay type: cell-based
[2] = molecular target: T1, OX1 (Homo sapiens, UniProt O43613); assay: Millipore Drug Discovery Safety and Liability Panel; assay type: cell-based
T1 construct: Millipore

[3] = molecular target: T2, GAL1 (Homo sapiens, UniProt P47211); assay: as above; assay type: cell-based
T2 construct: purchased Millipore

[4] = molecular target: T3, CCK2 (Homo sapiens, UniProt P32239); assay: as above; assay type: cell-based
T3 construct: purchased Millipore

[5] = molecular target: T4, Y2 (Homo sapiens, UniProt P49146); assay: as above; assay type: cell-based
T4 construct: Millipore

[6] = tested on: p42/p44 (MAPK pathway); assay: p42/p44 phosphorylation in primary lung endothelial cells (selectivity control); assay type: cell-based, mouse; conditions: control for selectivity
Method: ECs were seeded in six-well plates and allowed to grow to 90% confluence. Cells were then washed with PBS and serum starved for six hours. […] Cells were washed with cold PBS and then lysed in RIPA Buffer (50 mM Tris-HCl pH 7.4, 150 mM NaCl, 1 mM Ethylene diamine tetra-acetic acid (EDTA), 1% Triton X-100, 0.1% Sodium Dodecyl Sulfate (SDS), 0.5% deoxycholate) containing protease and phosphatase inhibitors (PPC1010, Sigma-Aldrich).
Samples were boiled for 10 min and proteins were separated on 10% acrylamide gel and transferred onto nitrocellulose membrane before blocking with 5% BSA or 5% powdered milk/Tris-buffered saline/Tween and incubated with the following primary antibodies: rabbit anti-Phospho-Akt1 (Ser473) (44-621G, Invitrogen), rabbit anti-Akt1 (2938S, Cell Signaling), rabbit anti-PhosphoSmad1/5 (Ser463/465) (9516S, Cell Signaling), rabbit anti-Smad1 (6944S, Cell Signaling), mouse anti-Phospho-p44/42 MAPK (Thr202/Tyr204) (E10) (9106S, Cell signaling), rabbit p44/42 MAPK (Erk1/2) (9102S, Cell Signaling), goat anti-Endoglin (AF1097, R&D systems) and mouse anti-β-actin (A5441, Sigma-Aldrich). Detection was achieved using HRP anti-rabbit IgG or HRP anti-mouse IgG (W4011 or W4021 respectively, Promega) or HRP anti-goat IgG (HAF017, R&D systems) followed by scanning on BIO-RAD ChemiDoc imager. […]

[7] = tested on: Thrombin-activated PARs; assay: Millipore Drug Discovery Safety and Liability Panel; assay type: cell-based; conditions: 10 μM
[8] = molecular target: AKT1 (Homo sapiens, UniProt P31749); assay: Panel of 450 kinases; assay type: biochemical
[9] = molecular target: Kv1.5 (Homo sapiens, UniProt P22460); assay: Cardiac ion channel profile; assay type: cell-based
[10] = molecular target: full length AKT1 (Homo sapiens, UniProt P31749); assay: Biochemical kinase assay
[11] = molecular target: T5, ETA (Homo sapiens, UniProt P25101); assay: Millipore Drug Discovery Safety and Liability Panel; assay type: cell-based
T5 construct: purchased Millipore

[12] = tested on: KChIP2 (Homo sapiens); assay: Cardiac ion channel profile; assay type: cell-based
[13] = molecular target: T6, PAF (Homo sapiens, UniProt P25105); assay: Millipore Drug Discovery Safety and Liability Panel; assay type: cell-based
T6 construct: Millipore

[14] = read-out: ANTAGONIST mean % inhibition

T4 sequence (P49146 whole entry): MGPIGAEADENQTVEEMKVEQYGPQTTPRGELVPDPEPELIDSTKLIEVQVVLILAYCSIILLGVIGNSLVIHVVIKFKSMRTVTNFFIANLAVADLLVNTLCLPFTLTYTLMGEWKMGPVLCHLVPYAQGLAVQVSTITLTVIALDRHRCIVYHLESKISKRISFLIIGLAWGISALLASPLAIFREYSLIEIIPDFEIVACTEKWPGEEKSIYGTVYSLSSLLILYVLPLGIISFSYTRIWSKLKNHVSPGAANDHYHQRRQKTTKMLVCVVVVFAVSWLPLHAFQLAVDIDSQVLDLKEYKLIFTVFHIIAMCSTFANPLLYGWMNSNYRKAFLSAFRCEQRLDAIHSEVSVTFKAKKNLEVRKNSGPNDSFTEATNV
T6 sequence (P25105 whole entry): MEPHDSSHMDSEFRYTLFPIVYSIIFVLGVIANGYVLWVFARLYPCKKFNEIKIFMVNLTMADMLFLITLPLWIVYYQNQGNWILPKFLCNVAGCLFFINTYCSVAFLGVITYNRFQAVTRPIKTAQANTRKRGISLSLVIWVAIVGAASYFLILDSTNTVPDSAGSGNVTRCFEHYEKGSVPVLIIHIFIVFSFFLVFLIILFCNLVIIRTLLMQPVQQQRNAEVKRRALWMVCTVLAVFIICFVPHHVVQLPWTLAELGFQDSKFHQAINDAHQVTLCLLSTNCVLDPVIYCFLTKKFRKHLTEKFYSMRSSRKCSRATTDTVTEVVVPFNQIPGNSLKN
T2 sequence (P47211 whole entry): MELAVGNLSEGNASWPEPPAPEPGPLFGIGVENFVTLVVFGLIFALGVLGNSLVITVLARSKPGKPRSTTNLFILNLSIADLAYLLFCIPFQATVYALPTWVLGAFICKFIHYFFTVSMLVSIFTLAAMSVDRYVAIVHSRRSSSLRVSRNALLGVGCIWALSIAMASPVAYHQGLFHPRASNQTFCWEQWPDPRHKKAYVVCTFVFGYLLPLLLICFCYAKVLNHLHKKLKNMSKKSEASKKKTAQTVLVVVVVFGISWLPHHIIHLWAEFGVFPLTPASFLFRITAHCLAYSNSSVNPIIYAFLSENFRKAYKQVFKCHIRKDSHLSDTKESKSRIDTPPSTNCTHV
T1 sequence (O43613 whole entry): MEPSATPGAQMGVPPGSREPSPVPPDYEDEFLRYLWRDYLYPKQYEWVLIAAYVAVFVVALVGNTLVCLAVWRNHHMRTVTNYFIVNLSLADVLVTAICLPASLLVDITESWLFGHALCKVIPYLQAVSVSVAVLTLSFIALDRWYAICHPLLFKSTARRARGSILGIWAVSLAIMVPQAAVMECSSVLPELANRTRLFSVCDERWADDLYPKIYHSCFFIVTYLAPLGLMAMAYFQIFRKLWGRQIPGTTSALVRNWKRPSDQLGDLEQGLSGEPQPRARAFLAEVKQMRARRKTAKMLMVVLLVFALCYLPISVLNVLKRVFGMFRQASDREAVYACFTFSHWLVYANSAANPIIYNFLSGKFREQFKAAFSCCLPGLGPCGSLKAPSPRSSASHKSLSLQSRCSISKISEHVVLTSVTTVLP
T3 sequence (P32239 whole entry): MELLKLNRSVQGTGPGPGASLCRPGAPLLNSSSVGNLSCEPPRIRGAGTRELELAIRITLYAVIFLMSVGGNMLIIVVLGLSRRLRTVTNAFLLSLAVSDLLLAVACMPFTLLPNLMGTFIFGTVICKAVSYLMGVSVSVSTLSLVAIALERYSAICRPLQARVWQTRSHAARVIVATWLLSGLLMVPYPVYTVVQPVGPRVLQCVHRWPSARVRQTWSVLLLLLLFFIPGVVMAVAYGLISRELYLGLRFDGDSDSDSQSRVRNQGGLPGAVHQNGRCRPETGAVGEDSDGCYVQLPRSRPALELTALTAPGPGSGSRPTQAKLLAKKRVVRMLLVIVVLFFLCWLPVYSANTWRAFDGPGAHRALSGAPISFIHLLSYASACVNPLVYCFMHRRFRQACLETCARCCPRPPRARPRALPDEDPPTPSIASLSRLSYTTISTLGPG
T5 sequence (P25101 21-427): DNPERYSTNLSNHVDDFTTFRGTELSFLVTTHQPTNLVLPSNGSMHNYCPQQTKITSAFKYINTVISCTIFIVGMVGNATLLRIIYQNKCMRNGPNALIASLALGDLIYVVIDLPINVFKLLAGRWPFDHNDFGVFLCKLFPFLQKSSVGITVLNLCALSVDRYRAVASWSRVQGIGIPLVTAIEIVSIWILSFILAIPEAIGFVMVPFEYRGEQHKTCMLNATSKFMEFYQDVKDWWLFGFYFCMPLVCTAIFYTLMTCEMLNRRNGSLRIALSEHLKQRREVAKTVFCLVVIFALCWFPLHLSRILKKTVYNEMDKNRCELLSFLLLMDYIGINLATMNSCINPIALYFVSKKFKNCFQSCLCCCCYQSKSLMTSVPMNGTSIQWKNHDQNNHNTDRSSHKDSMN
full length AKT1, sequence (P31749 whole entry): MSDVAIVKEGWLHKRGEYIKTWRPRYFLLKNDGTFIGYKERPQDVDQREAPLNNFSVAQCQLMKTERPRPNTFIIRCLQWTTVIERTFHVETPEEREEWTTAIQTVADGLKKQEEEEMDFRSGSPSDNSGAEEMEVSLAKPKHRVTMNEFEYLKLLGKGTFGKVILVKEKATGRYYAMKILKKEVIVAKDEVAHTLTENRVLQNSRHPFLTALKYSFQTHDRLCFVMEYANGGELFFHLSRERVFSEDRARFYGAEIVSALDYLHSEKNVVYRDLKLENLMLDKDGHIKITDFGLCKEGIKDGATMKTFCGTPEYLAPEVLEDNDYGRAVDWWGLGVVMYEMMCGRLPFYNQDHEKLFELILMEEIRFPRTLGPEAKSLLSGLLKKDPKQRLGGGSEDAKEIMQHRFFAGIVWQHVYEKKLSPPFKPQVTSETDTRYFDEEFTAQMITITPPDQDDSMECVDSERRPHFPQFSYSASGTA
AKT1, sequence (P31749 whole entry): as above
Kir2.1, sequence (P63252 whole entry): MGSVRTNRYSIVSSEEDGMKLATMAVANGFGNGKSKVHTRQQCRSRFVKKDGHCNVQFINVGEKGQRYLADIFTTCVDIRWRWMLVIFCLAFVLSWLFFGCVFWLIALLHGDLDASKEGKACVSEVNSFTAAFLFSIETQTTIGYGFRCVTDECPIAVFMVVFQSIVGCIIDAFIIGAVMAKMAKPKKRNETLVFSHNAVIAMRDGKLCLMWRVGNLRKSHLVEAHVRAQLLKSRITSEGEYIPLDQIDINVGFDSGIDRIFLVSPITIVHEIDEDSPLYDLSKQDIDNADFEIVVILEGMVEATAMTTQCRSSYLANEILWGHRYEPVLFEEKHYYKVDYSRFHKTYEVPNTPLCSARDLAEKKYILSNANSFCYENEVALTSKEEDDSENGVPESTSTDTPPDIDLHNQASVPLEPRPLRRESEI
KChIP2 (Homo sapiens), sequence (Q9UK17 whole entry): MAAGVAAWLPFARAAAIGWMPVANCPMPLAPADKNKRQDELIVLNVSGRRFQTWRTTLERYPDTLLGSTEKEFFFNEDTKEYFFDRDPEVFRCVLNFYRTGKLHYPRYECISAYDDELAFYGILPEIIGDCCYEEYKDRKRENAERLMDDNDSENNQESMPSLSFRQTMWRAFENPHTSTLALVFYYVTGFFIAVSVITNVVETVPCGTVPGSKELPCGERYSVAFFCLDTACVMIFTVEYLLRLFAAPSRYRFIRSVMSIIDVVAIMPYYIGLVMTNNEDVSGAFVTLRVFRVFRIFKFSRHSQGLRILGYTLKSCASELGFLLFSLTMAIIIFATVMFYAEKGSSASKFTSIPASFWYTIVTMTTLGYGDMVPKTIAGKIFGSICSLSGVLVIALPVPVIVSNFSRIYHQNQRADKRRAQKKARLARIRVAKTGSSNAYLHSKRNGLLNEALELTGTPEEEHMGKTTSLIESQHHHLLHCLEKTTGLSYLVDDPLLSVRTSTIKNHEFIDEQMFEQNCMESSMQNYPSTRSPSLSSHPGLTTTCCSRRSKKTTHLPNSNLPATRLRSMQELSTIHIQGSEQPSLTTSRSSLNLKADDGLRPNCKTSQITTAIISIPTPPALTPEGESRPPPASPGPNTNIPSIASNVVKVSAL
KChIP2 (Homo sapiens), sequence (Q9NS61 whole entry partner): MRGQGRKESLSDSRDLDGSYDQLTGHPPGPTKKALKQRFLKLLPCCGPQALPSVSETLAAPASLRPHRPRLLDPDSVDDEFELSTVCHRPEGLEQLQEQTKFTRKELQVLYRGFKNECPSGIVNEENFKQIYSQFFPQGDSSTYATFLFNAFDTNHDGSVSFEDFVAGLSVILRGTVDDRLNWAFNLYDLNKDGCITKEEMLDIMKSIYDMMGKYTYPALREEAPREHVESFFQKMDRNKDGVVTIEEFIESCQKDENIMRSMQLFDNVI
Kv1.5, sequence (P22460 whole entry): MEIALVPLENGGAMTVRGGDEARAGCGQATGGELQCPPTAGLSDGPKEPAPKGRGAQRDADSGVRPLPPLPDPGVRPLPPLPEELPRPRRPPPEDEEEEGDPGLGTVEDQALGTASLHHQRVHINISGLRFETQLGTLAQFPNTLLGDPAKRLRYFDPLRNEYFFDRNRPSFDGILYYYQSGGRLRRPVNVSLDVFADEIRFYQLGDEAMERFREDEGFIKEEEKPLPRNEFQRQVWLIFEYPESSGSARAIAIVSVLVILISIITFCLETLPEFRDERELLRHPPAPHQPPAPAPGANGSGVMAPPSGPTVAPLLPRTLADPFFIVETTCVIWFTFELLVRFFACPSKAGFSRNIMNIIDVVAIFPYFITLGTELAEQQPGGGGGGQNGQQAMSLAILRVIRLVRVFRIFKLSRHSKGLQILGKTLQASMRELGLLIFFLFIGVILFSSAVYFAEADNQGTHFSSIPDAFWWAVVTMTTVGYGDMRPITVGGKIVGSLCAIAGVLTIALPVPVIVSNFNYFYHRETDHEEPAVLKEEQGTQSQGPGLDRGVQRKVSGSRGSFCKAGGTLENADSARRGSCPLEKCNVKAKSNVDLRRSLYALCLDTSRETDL

Compound: CCN1C(=O)COc2nc(-c3ccc(C4(N)CC(O)C4)cc3)c(-c3ccccc3)cc21.O=C(O)C(O)C(O)C(=O)O [VAD044, 6-(4-(1-amino-3-hydroxycyclobutyl)phenyl)-1-ethyl-7-phenyl-1H-pyrido[2,3-b][1,4]oxazin-2(3H)-one L-tartrate]
- inhibition at 10 µM [1]: < 25%
- activation at 10 µM ([2]; OX1, 10 μM, read-out: AGONIST mean % increase in activity): -1.8%
- inhibition at 10 µM [2, 14]: -3.8%
- activation at 10 µM ([3]; GAL1, 10 μM, read-out: AGONIST mean % increase in activity): 0.3%
- inhibition at 10 µM [3, 14]: 3.4%
- activation at 10 µM ([4]; CCK2, 10 μM, read-out: AGONIST mean % increase in activity): -0.2%
- inhibition at 10 µM [4, 14]: 8.3%
- activation at 10 µM ([5]; Y2, 10 μM, read-out: AGONIST mean % increase in activity): -2.2%
- inhibition at 10 µM [5, 14]: -5.7%
- impact on the MAPK pathway (p42/p44 phosphorylation) [6]: no impact on the MAPK pathway
- AGONIST mean % increase in activity [7]: 0%
- ANTAGONIST mean % inhibition [7]: −1.2%
- inhibition at 10 µM [8]: 89%
- inhibition at 10 µM [9]: < 25%
- IC50 [10]: 125 nM
- activation at 10 µM ([11]; ETA, 10 μM, read-out: AGONIST mean % increase in activity): -0.4%
- inhibition at 10 µM [11, 14]: 10.5%
- inhibition at 10 µM [12]: < 25%
- activation at 10 µM ([13]; read-out: AGONIST mean % increase in activity): -0.9%
- inhibition at 10 µM [13, 14]: 21%
